Here are results for one molecule from US12150945B2, “Liver disease” (Lipocine Inc., priority 2018, dated 2024).

This test concerns SHBG. The test can be described thus: Sex hormone binding globulin (SHBG) levels, trial of Example 1. Type of test: in vivo, human. On the procedure: Oral testosterone therapy was evaluated in a multicenter, phase 3, randomized, open-label, active controlled, parallel-group study that included a 13-week efficacy phase and a 52-week safety phase. An active arm in which subjects received T gel was included for safety evaluation only.
Subjects were randomized in a 2:1 ratio to oral testosterone undecanoate or T gel. oral testosterone undecanoate subjects started at a dose of 225 mg TU (“testosterone undecanoate”) taken twice daily (total daily dose: 450 mg TU) every 12 hours. For optimal lymphatic absorption oral testosterone undecanoate must be administered with a meal. […]
Serum levels of T, TU, dihydrotestosterone (DHT), dihydrotestosterone undecanoate (DHTU), and estradiol (E2) were evaluated in oral testosterone undecanoate treated subjects. […] Sex hormone binding globulin (SHBG) was evaluated in data from all subjects. Serum T concentrations at screening were measured using chemiluminescence immunoassay kits. Hormone assays for pharmacokinetic assessment were analyzed at PPD Bioanalytical Laboratory in Richmond, Virginia Serum samples were analyzed for T, DHT, TU, DHTU, and E2 using a validated liquid chromatography-tandem mass spectrometry (LC-MS/MS) assay.

For `CCCCCCCCCCC(=O)O[C@H]1CC[C@H]2[C@@H]3CCC4=CC(=O)CC[C@]4(C)[C@H]3CC[C@]12C` [oral testosterone undecanoate, testosterone undecanoate], the “SHBG change from baseline” value (Week 13 (largest decrease)) is -11.75 nmol/L. Also, where the note is “each post-baseline visit”, the “Mean SHBG levels” value is on record as “decreased”.
